In US12611380B2, “Solution and method for reducing the virulence of viruses, bacteria, yeasts, or fungus” (priority 2020, dated 2026):
“Also recorded” adds a separate entry of the source. Where two headings read alike, the source gives them in different places.

Legend:
[1] = system: Candida albicans (ATCC 10231); assay: EPA protocol MB-35-00 hard surface carrier disinfection test; conditions: 0.42 M, 1 min
Experimental: (§1) We used EPA protocol MB-35-00 for testing disinfectants against C. auris (US Environmental Protection Agency. 2017, 2020) and C. albicans ATCC 10231, a yeast common in package spoilage of food and cosmetics.
(§2) We tested 5 batches produced with difference sources of isomerized linoleic acid (Test Substances 1-5).
(§3) The EPA test protocol for testing hard surface disinfection of C. auris (AR0381) with antifungal resistance includes an overnight culture of C. auris (AR.0381) shaken at 200 rpm at 30° C. From this culture, 8 mL was harvested by centrifugation, re-suspended in 2-3 mL phosphate-buffered saline (PBS), and mixed with a 3-part soil load including bovine serum albumin (BSA), yeast extract, and mucin. Metal carriers (10 mm) were inoculated (10 μL culture+soil load) and dried in a desiccator under vacuum (˜70 min). The disk surface was coated with the test substance at 0.42 M (50 μL) for up to 10 min. Following incubation, the carriers were transferred to 10 mL neutralization solution (Sabouraud Dextrose Broth [SDB], a common yeast-mold growth media) for subsequent harvesting on membrane filters. The filtered membranes were transferred to Sabouraud Dextrose Emmons Agar (SDEA) plates to culture for 120 hours at 31° C. Controls consisted of PBS (50 μL) applied to inoculated metal disk carriers, subsequently transferred to 10 mL neutralization solution (SDB), diluted serially in PBS, and plated directly to SDEA plates, See FIG. 2.
(§4) We prepared and qualified these per EPA protocol (US Environmental Protection Agency, 2017). • Soil Stocks: We prepared soil stocks with yeast extract powder (Ref RM027) purchased from Himedia, BSA (A2153) purchased from Sigma Life Science, and gastric mucin (cat #HY-B2196/CS-7626) purchased from Mod Chem Express per SOP MB-35-00 (US Environmental Protection Agency, 2017). • Cell Harvesting: We removed cells from the growth culture media using a Micro-Centrifuge obtained from Changzhou Jintan Sanhe Instrument Co., LTD. (Model TGI6-W) at 10,000×g for 10 min in screw-top-cap vials purchased from Heathrow Scientific (Item HS 100600). The optical density of the inoculate was defined at 15-19 OD600 in PBS with the Ultrospec 10 Cell Density Meter from BioChrom (Holliston, MA, USA) prior to dilution in the soil load. Samples were diluted 1:10 in PBS to obtain absorbance readings between 1.5 and 1.9. • Membrane Filtration: Treated yeasts were collected using a combination of the Rocker (Cat #200300-01) and 47 mm PES membranes with a 0.45 micron pore size obtained from Sterlitech (Catalog #PE54547100).

microbial growth = assay: Reduction in microbial growth; type: cell-based; conditions: potassium hexadiene at pH 9
[2] = system: methacillin resistant Staphylococcus aureus, vancomycin resistant enterococcus, pseudomonas, aspergillus, Candida albicans, Helicobacter pylori; conditions: studies by a third party; cited from earlier work
Candida auris AR-0381 = assay: EPA MLB SOP MB-35-00 stainless steel carrier disinfection with ILPS (Example 5); type: cell-based
COVID-19 = assay: Nebulized LA outpatient treatment of COVID-19 patients and close contacts (case studies); type: in vivo, human
Experimental: After informed consent of the risks and potential benefits, we nebulized 0.56 ml 11 mM LA every 4 hours to treat two COVID-19 patients. The initial treatment of the […] began after two days of symptoms and the […] began treatment after their first day symptoms. Treatment observations of these two cohabiting patients occurred in their home to alter the likely course of clinical deterioration given their co-morbidities.
They were treated with 0.56 ml 11 mM nebulized LA every 4 hours, around the clock for 7 days. Oxygen saturation levels were recorded by the patient using a pulse oximeter. The initial and final evaluation was conducted as a home visit. All other evaluations were conducted by telephone. The treatment timeline starts the day after the initial home visit. • Day 1: they reported a total loss of taste and smell and mild chest pain. They also reported absence of dyspnea early that day and improved cough. Their oxygen saturation measured 98% (up from 94%). • Day 2: they reported intermittent taste and smell through day 4. Their chest pain resolved. They also reported infrequent loose bowel movements which improved and resolved over the following 3 days. They described no dyspnea. Their oxygen saturation measured 97%. • Day 3: they reported a return of mild dyspnea. Their oxygen saturation measured 95%. • Day 4: they reported dyspnea improvement. Their oxygen saturation measured between 95-98%. • Day 5: they reported that their sense of taste and smell was close to normal. They also reported that their cough had resolved and they had minimal dyspnea. Their oxygen saturation measured 97%. • Day 6: no reported symptoms. Their oxygen saturation measured 97%. • Day 7: no reported symptoms. Their oxygen saturation measured 98%.
After informed consent of the risks and potential benefits, we nebulized 0.56 ml 11 mM LA every 4 hours around the clock for 7 days. […] […] initial oxygen saturation measured 96%.
Oxygen saturation levels were recorded by the patient using a pulse oximeter. The initial and final evaluation was conducted as a home visit. All other evaluations were conducted by telephone. The treatment timeline starts the day after the initial home visit. • Day 1: they reported loss of taste and smell and fatigue. Their wheezing had improved. They reported no dyspnea. Oxygen saturation measured 95%. • Day 2: they reported mild wheezing and dyspnea. Their oxygen saturation measured 94%. An additional treatment of an Albuterol nebulizer and Methylprednisolone Dosepak was started for their asthma exacerbation. When starting nebulized Albuterol, this patient inadvertently discontinued the nebulized LA because they misunderstood instructions. This cessation of nebulized LA was not reported to the treating physician until Day 4. • Day 3: they reported improved loss of taste and smell and cough. Dyspnea worsened. Oxygen saturation measured 98% • Day 4: they reported that the loss of taste and smell improved. They also reported mild wheezing and cough. Oxygen saturation measured 95%. The patient reported the Albuterol nebulizer aggravated dyspnea symptoms. Because of their complaint, the Albuterol nebulizer was discontinued. Nebulized LA treatment was started again. • Day 5: they reported no loss of taste and smell. Minimal cough, wheeze, and dyspnea. Oxygen saturation measured 96% • Day 6: no reported symptoms. Oxygen saturation measured 98%. • Day 7: no reported symptoms. Oxygen saturation measured 98%.
Four lab confirmed COVID-19 cases, 2 probable cases, and 2 close contacts of confirmed COVID-19 cases were nebulized 0.56 ml 11 mM LA (Table 2). Treatment with LA was started after patients were assessed by their primary physician. Patients presented at different points in their COVID-19 infection. Onset of treatment ranged from asymptomatic to 9 days into the symptom course. Two close contacts with cases were treated. They were asymptomatic. Two close contacts with COVID-19 cases were also nebulized using 0.56 ml 11 mM LA every 4 hours. […]

[3] = Solubility of ILCS preparations; type: physicochemical; conditions: pH 7-10.5
SARS-COV-2 = assay: Virucidal assay, 2 minutes contact, end-point titer (CCID50) on Vero 76 cells
[4] = system: Candida albicans ATCC 10231; assay: EPA MLB SOP MB-35-00 stainless steel carrier disinfection with ILPS (Example 5); type: cell-based
[5] = Concentration 11.3% of 12% ICLS, 2 minutes, 22±2° C., Table 4
[6] = Concentration 22.5% of 12% ICLS, 2 minutes, 22±2° C., Table 4
[7] = Concentration 45% of 12% ICLS, 2 minutes, 22±2° C., Table 4
[8] = Concentration 90% of 12% ICLS, 2 minutes, 22±2° C., Table 4
[9] = second experiment, Concentration 0.25% of 12% ICLS, 2 minutes, Table 5
[10] = second experiment, Concentration 0.5% of 12% ICLS, 2 minutes, Table 5
[11] = second experiment, Concentration 1% of 12% ICLS, 2 minutes, Table 5
[12] = second experiment, Concentration 11.3% of 12% ICLS, 2 minutes, 22±2° C., Table 5
[13] = second experiment, LA 1% (4.4 mM), 2 minutes, Tables 8 and 9

Experimental for Candida auris (AR-0381): as §1, §2, §3, §4

## potassium salt of isomerized linoleic acid [ILCS]
[1]
  log kill rate: greater than 5 log
Microbial growth
  reduction in microbial growth: 8-10 log reduction
Candida auris (AR-0381); 0.42 M, 1 min
  log kill rate: greater than 5 log
Candida auris (AR-0381); 10-min test, the longest time allowed per the SOP
  log kill rates: greater than 5 log
[2]
  growth of pathogens: suppresses the growth
Candida auris AR-0381; 2-minute immersion, carriers inoculated with 6-8 log yeast
  kill: 100%
Candida auris AR-0381; undiluted ILPS, 10 minutes, seven carries, untreated 7.1-7.2 log10 CFU
  colonies recovered from treated carries: no colonies
COVID-19; Cases 1
  COVID-19 Complications: none
COVID-19; Cases 1, 0 days of symptoms before treatment
  Total Duration of Symptoms: 0 days
COVID-19; Cases 2
  COVID-19 Complications: none
COVID-19; Cases 2, 2 days of symptoms before treatment
  Total Duration of Symptoms: 7 days
COVID-19; Cases 3, 4 days of symptoms before treatment
  Total Duration of Symptoms: 16 days
COVID-19; Cases 4, 9 days of symptoms before treatment
  Total Duration of Symptoms: 23 days
COVID-19; Close Contacts 1
  COVID-19 Complications: none
COVID-19; Close Contacts 1, asymptomatic at treatment
  Total Duration of Symptoms: 0 days
COVID-19; Close Contacts 2
  COVID-19 Complications: none
COVID-19; Close Contacts 2, asymptomatic at treatment
  Total Duration of Symptoms: 0 days
COVID-19; Probable Cases 1
  COVID-19 Complications: Steroid for asthma
COVID-19; Probable Cases 1, 1 day of symptoms before treatment
  Total Duration of Symptoms: 6 days
COVID-19; Probable Cases 2
  COVID-19 Complications: none
COVID-19; Probable Cases 2, 3 days of symptoms before treatment
  Total Duration of Symptoms: 10 days
COVID-19; eight patients of Example 7, nebulized 0.56 ml 11 mM LA, listed as LA
  side effects to nebulized LA: no side effects; also recorded: None of the eight patients reported any side effects
COVID-19; husband, treatment Day 1 (94% before treatment)
  oxygen saturation: 98%
COVID-19; husband, treatment Day 2
  oxygen saturation: 97%
COVID-19; husband, treatment Day 3
  oxygen saturation: 95%
COVID-19; husband, treatment Day 4
  oxygen saturation: 95-98%
COVID-19; husband, treatment Day 5
  oxygen saturation: 97%
COVID-19; husband, treatment Day 6
  oxygen saturation: 97%
COVID-19; husband, treatment Day 7
  oxygen saturation: 98%
COVID-19; two asymptomatic close contacts of COVID-19 cases
  prevention of symptoms in close contacts: completely effective
COVID-19; two patients of Example 6, 0.56 ml 11 mM every 4 hours for 7 days
  side effects to nebulized LA: no side effects
COVID-19; wife, Day 2, Albuterol and Methylprednisolone started, LA inadvertently discontinued
  oxygen saturation: 94%
COVID-19; wife, Day 3, nebulized LA discontinued, on Albuterol
  oxygen saturation: 98%
COVID-19; wife, Day 4, nebulized LA started again
  oxygen saturation: 95%
COVID-19; wife, treatment Day 1 (96% before treatment)
  oxygen saturation: 95%
COVID-19; wife, treatment Day 5
  oxygen saturation: 96%
COVID-19; wife, treatment Day 6
  oxygen saturation: 98%
COVID-19; wife, treatment Day 7
  oxygen saturation: 98%
[3]
  solubility: remain soluble
SARS-COV-2
  reduction of virus vs virus controls: > 99%
SARS-COV-2; 1% (4.4 mM), 2 minutes, second experiment, titer reduced to 1.7 log CCID50 per 0.1 mL
  reduction of virus vs virus controls: 99%
SARS-COV-2; 22.5%-90%, 2 minutes, first experiment, below limit of detection 2.7 log CCID50 per 0.1 mL
  reduction of virus vs virus controls: > 80%
SARS-COV-2; [5]
  LRV (log reduction value): >1.8
  Virus Titer: <1.7 Log10 CCID50 of virus per 0.1 mL
SARS-COV-2; [6]
  LRV (log reduction value): >0.8
  Virus Titer: <2.7 Log10 CCID50 of virus per 0.1 mL
SARS-COV-2; [7]
  LRV (log reduction value): >0.8
  Virus Titer: <2.7 Log10 CCID50 of virus per 0.1 mL
SARS-COV-2; [8]
  LRV (log reduction value): >0.8
  Virus Titer: <2.7 Log10 CCID50 of virus per 0.1 mL
SARS-COV-2; LA 4.4-50.2 mM, 2 minutes
  kill-rate of COVID-19 (SARS-Cov-2) in vitro: 99%
SARS-COV-2; [9]
  LRV (log reduction value): 0.4
  Virus Titer: 3.3 Log10 CCID50 of virus per 0.1 mL
SARS-COV-2; [10]
  LRV (log reduction value): 0.2
  Virus Titer: 3.5 Log10 CCID50 of virus per 0.1 mL
SARS-COV-2; [11]
  LRV (log reduction value): 2.0
  Virus Titer: 1.7 Log10 CCID50 of virus per 0.1 mL
SARS-COV-2; [12]
  LRV (log reduction value): >2.0
  Virus Titer: <1.7 Log10 CCID50 of virus per 0.1 mL
SARS-COV-2; [13]
  LRV (log reduction value): >2.0
  Virus Titer: <1.7 Log10 CCID50of virus per 0.1 mL
[4]; 1 minute exposure to ILPS, only exposure time of 8 to 1 minutes with growth
  growth on exposed carrier: 158 CFU
[4]; 2 minutes exposure/immersion, carriers with 6-8 log yeast
  kill: 100%
[4]; undiluted ILPS, 10 minutes contact time, PBS controls 5.9 to 7.2 log10 CFU
  colonies recovered from treated surfaces: no Candida albicans colonies
Vero 76 cells; 11.3% sample, 1/10 dilution
  toxicity to cells in titer plates: Full toxicity
Vero 76 cells; 22.5%-90% samples, 1/10 and 1/100 dilutions
  toxicity to cells in titer plates: Full toxicity
